# Measurements published in patent US9610367B2, “Particle and contrast agent having the particle” (CANON KABUSHIKI KAISHA, priority 2010, dated 2017).
# Experiments:
# Assay type in all cases: physicochemical
# [1] = stability of aqueous dispersion: absorbance at λmax over time at 4° C. in a dark place; conditions: at 48 hours; ICG dissolved in water
# Description: To evaluate the stability of polymer nanoparticles, aqueous dispersions of PNP1 and PNP2 were allowed to stand at 4° C. in a dark place, and changes in the absorbance at λmax were measured over time. The results are illustrated in FIGS. 5 and 6. As a comparative example, changes with time in the absorbance at λmax of NPL 1 and in an ICG solution are illustrated in FIG. 5.
# Changes in the absorbance of the aqueous dispersions of PNP4 to PNP6 at λmax were measured over time in the same manner as in Example 9. The results are illustrated in FIGS. 7 and 8. As a comparative example, changes with time in the absorbance at λmax of NPL 1 and in an ICG solution are illustrated in FIG. 7.
# The PNP10 prepared in Example 13 was diluted with water, and the absorbance was measured over time with an absorption spectrometer (Perkin Elmer). The dispersion was shielded from a light except when measurement was performed and stored at 4° C. The measurement results are illustrated in FIG. 9.
# [2] = solubility of ICG in dichloromethane when phospholipid was added; conditions: phospholipid not added; inferred from absorption curve integral values
# Description: 2 molar equivalents of a phospholipid was added to 5.5 mg of ICG. As the phospholipid, DSPC or DOPE was used. Each of these ICG-phospholipid mixtures was dissolved in 2 mL of dichloromethane. Controls were prepared by dissolving in ICG in methanol or dichloromethane. All these ICG solutions were filtered with a filter having a pore size of 0.2 μm and then diluted 500-fold with dichloromethane.
# [3] = dissolution of ICG in chloroform with lipids without a positively charged region; conditions: lipid without positively charged region used instead of DOPE
# Source text: Instead of DOPE of Example 1, lipids (chemical formula 8, tristearin; chemical formula 9, triolein; chemical formula 10, ethyl stearate; chemical formula 11, β-carotene; and chemical formula 12, cholesterol acetate) without a positively charged region represented by the following chemical formulas 8 to 12 were used to prepare an ICG composition in the same manner as in Example 1. However, ICG was not dissolved in chloroform in any case, and a target polymer nanoparticle containing ICG could not be obtained.
Compound,absorbance change rate at λmax [1] [%],ICG dissolved in dichloromethane [2],dissolution of ICG in chloroform [3]
indocyanine green [ICG],70,approximately 0.6 mM,
CCCCCCCCCCCCCCCCCC(=O)OCC(COC(=O)CCCCCCCCCCCCCCCCC)OC(=O)CCCCCCCCCCCCCCCCC [tristearin],,,not dissolved
CCCCCCCCCCCCCCCCCC(=O)OCC [ethyl stearate],,,not dissolved
CCCCCCCC/C=C\CCCCCCCC(=O)OCC(COC(=O)CCCCCCC/C=C\CCCCCCCC)OC(=O)CCCCCCC/C=C\CCCCCCCC [triolein],,,not dissolved
CC(=O)O[C@H]1CC[C@@]2(C)C(=CC[C@H]3[C@@H]4CC[C@H]([C@H](C)CCCC(C)C)[C@@]4(C)CC[C@@H]32)C1 [cholesterol acetate],,,not dissolved
